Legend:
[1] = molecular target: 5-HT4 receptor (Rattus norvegicus, UniProt Q62758); assay: cell-based; conditions: rat esophagus tunica muscularis mucosae contracted with carbachol (3 μM); tissues from 5 rats; 37° C.; read-out: EC50 values for agonists at this 5-HT4 receptor
Experimental: Agonist activity was determined utilizing relaxation of carbachol-contracted rat tunica muscularis mucosae. One 2 cm segment of intrathoracic esophagus proximal to the diaphragm was removed from male rats, weighing approximately 300 gm, and the outer muscle layers removed. The inner tunica muscularis mucosa was mounted under 0.2-0.3 g of tension in a tissue bath containing oxygenated Tyrode's solution at 37° C. […] Following a 30 min equilibrium period, tissues were isometrically contracted with carbachol (3 μM) to obtain a tonic contraction. A stable plateau was obtained within 20 min when test compound was added cumulatively to relax the muscle strip. EC50 values were obtained for each agonist in tissues from 5 rats.

[2] = molecular target: T1, 5-HT3 receptor (Rattus norvegicus, UniProt P35563); assay: Serotonin (5-HT3) radioligand receptor binding assay ([3H]-GR65630, rat brain cortex membranes)
T1 construct: Brain cortices are obtained from male rats and a membrane fraction prepared by standard techniques; from tissue; host or cells: rat brain cortex membranes
T1 sequence (P35563 24-483): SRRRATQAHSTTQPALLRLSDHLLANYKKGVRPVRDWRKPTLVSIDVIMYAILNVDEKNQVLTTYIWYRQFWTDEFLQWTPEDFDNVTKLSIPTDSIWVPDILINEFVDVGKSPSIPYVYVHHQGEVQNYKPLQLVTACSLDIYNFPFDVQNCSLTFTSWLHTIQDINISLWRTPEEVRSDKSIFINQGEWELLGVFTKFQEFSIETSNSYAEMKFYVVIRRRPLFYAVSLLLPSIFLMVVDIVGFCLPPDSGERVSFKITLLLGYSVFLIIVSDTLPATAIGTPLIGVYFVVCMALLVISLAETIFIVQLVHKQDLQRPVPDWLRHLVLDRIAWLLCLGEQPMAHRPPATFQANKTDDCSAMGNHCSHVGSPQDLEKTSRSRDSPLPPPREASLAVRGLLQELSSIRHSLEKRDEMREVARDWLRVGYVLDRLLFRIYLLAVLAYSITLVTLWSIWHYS
Experimental: 5-HT3 antagonism can be determined by the radioligand receptor binding assay as described herein and in the in vivo Bezold-Jarisch reflex procedure.
GR65630 binds to the 5-HT3 receptor. Brain cortices are obtained from male rats and a membrane fraction prepared by standard techniques. 0.04 mg of membrane prep is incubated with 0.2 nM [^3 H]-GR656630 for 60 minutes at 22° C. […] Membranes are filtered and washed 3 times and the filters are counted to determine [3H]-GR65630 specifically bound.*
Kilpatrick G. J., Jones B. J. and Tyers M. B. Identification and distribution of 5-HT3 receptors in rat brain using radioligand binding. Nature, 330: 746-748, 1987.

Chain of 5-HT4 receptor (Q62758 whole entry): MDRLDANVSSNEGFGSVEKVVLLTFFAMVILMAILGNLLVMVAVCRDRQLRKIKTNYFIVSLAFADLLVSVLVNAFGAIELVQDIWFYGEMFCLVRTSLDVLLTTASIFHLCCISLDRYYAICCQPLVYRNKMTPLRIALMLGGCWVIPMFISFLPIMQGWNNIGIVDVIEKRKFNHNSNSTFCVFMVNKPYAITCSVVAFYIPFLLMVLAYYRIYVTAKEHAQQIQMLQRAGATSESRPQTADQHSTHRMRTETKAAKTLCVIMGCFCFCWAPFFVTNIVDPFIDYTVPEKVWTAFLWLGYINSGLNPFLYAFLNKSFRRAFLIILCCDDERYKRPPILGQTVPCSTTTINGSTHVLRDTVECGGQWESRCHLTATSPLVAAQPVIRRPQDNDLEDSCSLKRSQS

Row | Compound | EC50 [1] [nM] | also measured
1 | COc1cc(N)c(Cl)cc1C(=O)NCC12CCCN1CCC2 [Example 1, 4-amino-5-chloro-2-methoxy-N-(tetrahydro-1H-pyrrolizin-7a (5H) -ylmethyl)benzamide] | 422 | –
2 | COc1cc(N)c(Cl)cc1C(=O)NCC12CC3CN(CC3C1)C2 [Example 9, 4-amino-5-chloro-N-[(hexahydro-2,5β-methano-1H-3aR,3aα,6aα-cyclopenta[c]pyrrol-5-yl)methyl]-2-methoxybenzamide] | 216 | –
3 | Cc1nc[nH]c1CCC(=O)c1cn(C)c2ccccc12 [GR65630] | – | % Specific Binding ([2]; radioligand, non-specific binding estimated in the presence of 1 uM ICS 205-930): 70%
4 | COc1ccc2[nH]cc(C3=CCNCC3)c2c1 [RU24969] | – | Ki [2]: 1.85 nM

From patent publication US5516782A, “New meso-azacyclic aromatic acid amides and esters as novel serotonergic agents” (G. D. Searle & Co., priority 1995, dated 1996)
